For assay [1], the system named is ADP-Induced Platelet Aggregation. Nature of the assay: Inhibition of ADP-induced platelet aggregation in rabbit platelet-rich plasma (microplate method). The assay is classed as cell-based. The note with it: Oryctolagus cuniculus, Platelet, rabbit PRP, inducer ADP; for IC50: absorbance 655 nm, read-out: IC50 (Mean ± SE), ADP-induced platelet aggregation. Here is the method:
Example 62 Investigation on Inhibition of ADP-Induced Platelet Aggregation in Rabbit
A blood sample was collected from ear vein of a healthy male rabbit, added with 3.8% sodium citrate for anticoagulation and then centrifuged at 800 r/min for 10 min to prepare platelet-rich plasma (PRP) and at 3,000 r/min for 10 min to prepare platelet-poor plasma (PPP). The investigation on the plasma should be performed within 0.5-3 h after the preparation.
2. Determination of Platelet Aggregation by Microplate Method
The drugs to be tested were weighed and added with an appropriate amount of DMSO to prepare a series of 10 mM stock solutions, which were respectively diluted to prepare 10× stock solutions with normal saline for further use.
Several wells of a microplate were selected as test wells, which were added with 135 μL of PRP and then respectively added with 15 μL of the 10× stock solutions. A well in which 135 μL of PRP and 15 μL of normal saline were added was used as the vehicle control, and a well in which 135 μL of PPP and 15 μL of normal saline were added was used as the blank control. Duplicate wells were set for each test well. The plate was shaken, incubated at 37° C. for 5 min, and then measured for A0 at 655 nm. Subsequently, the microplate was added with 15 μL of an inducer […] (ADP) working solution (25 μmol/L) in each well, incubated at 37° C. under shaking and measured at 655 nm for A1, where the incubation time was determined according to the time in the pre-experiment when the maximum aggregation appeared. The platelet aggregation rate (AR) and platelet aggregation inhibition rate (AIR) were calculated according to the following formulas:
AR=(1−ARtest sample/ARcontrol)

For assay [2], the system named is carotid artery thrombus induced by ferric chloride. Nature of the assay: Effect of intragastric administration on FeCl3-induced carotid arterial thrombosis in male SD rats. Format: in vivo, male Sprague Dawley (SD) rats. The note with it: for Wet weight of thrombus: daily for one week, male SD rats, 20% FeCl3. Here is the method:
Example 63 Effect of Intragastric Administration of Compound LY-26y on Arterial Thrombosis in Male Sprague Dawley (SD) Rats
1. Experimental animals: 50 male SD rats, 260-320 g (n=10).
2. Main reagents: ferric chloride, urethane, 0.5% CMC-Na, 0.9% NaCl.
The 50 male SD rats were randomly and averagely divided into five groups, respectively model group, low-dose LY-26y group (5 mg/kg), medium-dose LY-26y group (10 mg/kg), high-dose LY-26y group (20 mg/kg) and positive control group (10 mg/kg ticagrelor). After experiencing one-week adaptation, the rats in the experimental groups were treated by intragastric administration of LY-26y by at 9 am every day, and the model group was treated with 0.5% CMC-Na solution. After continuously treated for one week, the rats were anesthetized by intraperitoneal injection of 20% urethane ([…]) 8 min after the last administration. Then the anesthetized rats were placed on an insulation plate (to maintain body temperature) in a supine position, and a straight incision was made on the midline of the neck to expose the right common carotid artery. A plastic film (1.5×1.0 cm^2) was placed under the artery to protect the surrounding tissues. The filter paper was cut into a size of 1.0×0.8 cm^2, soaked with a 20% FeCl3 solution and then used to coat the exposed artery for 30 min to induce […] thrombosis. After 2 h of the administration, a 1.5-cm […] carotid artery was collected and weighed, and then the blood vessel was cut to remove the thrombus therein to measure the weight of the blood vessel wall, where the weight difference was the weight of thrombus.

In general, IC50 refers to the point on the concentration scale where inhibition reaches its midpoint. The inhibition is how much of the control response was suppressed.

With `CCOC(=O)c1c(C)nc(-c2cccc(C#N)c2)n1OCc1ccc(C#N)cc1` [LY-26y, ethyl 1-[(4-cyanobenzyl)oxy]-2-(3-cyanophenyl)-4-methyl-1H-imidazole-5-carboxylate], the IC50 in assay [1] was 4.237 ± 0.0156 µM. Moreover, the “Wet weight of thrombus” value is given as 6.38 ± 0.18 mg in assay [2] (5 mg/kg intragastric), 4.89 ± 0.33 mg in assay [2] (10 mg/kg intragastric) and 4.39 ± 0.26 mg in assay [2] (20 mg/kg intragastric). In assay [2] (intragastric administration, in words), the “Effect on weight of the FeCl3-induced arterial thrombus in rats” value is “significantly reduced”.

Take `CCOn1c(-c2cccc(C#N)c2)nc(C)c1C(=O)O` [LY-27b, 4-methyl-2-(3-cyanophenyl)-1-ethoxy-1H-imidazole-5-carboxylic acid]: the IC50 in assay [1] was found to be 9.71 ± 0.557 µM. For the molecule `C=CCOn1c(-c2cccc(C#N)c2)nc(C)c1C(=O)O` [LY-27d, 4-methyl-2-(3-cyanophenyl)-1-allyloxy-1H-imidazole-5-carboxylic acid], in assay [1], the IC50 stood at 6.35 ± 0.469 µM. On to `Cc1nc(-c2cccc(C#N)c2)n(OCc2ccccc2)c1C(=O)O` [LY-27k, 4-methyl-2-(3-cyanophenyl)-1-benzyloxy-1H-imidazole-5-carboxylic acid], for which the IC50 in assay [1] worked out at 6.24 ± 0.324 µM.

`Cc1ccc(COn2c(-c3cccc(C#N)c3)nc(C)c2C(=O)O)cc1` [LY-27s, 4-methyl-2-(3-cyanophenyl)-1-(4-methylbenzyl)oxy-1H-imidazole-5-carboxylic acid]: in assay [1], the IC50 was 6.56 ± 0.357 µM. Still for that read-out and setting: the value for `Cc1nc(-c2cccc(C#N)c2)n(OCc2ccc(C#N)cc2)c1C(=O)O` [LY-27y, 4-methyl-2-(3-cyanophenyl)-1-(4-cyanobenzyl)oxy-1H-imidazole-5-carboxylic acid] was 3.88 ± 0.269 µM. Consider `CCCNC(=O)c1c(C)nc(-c2cccc(C#N)c2)n1OC` [LY-28a, 4-methyl-2-(3-cyanophenyl)-1-methoxy-N-propyl-1H-imidazole-5-carboxamide], for which the IC50 in assay [1] stood at 9.57 ± 0.226 µM.

For the molecule `COn1c(-c2cccc(C#N)c2)nc(C)c1C(=O)NC(C)C` [LY-28b, 4-methyl-2-(3-cyanophenyl)-1-methoxy-N-isopropyl-1H-imidazole-5-carboxamide], the IC50 in assay [1] stood at 11.2 ± 0.966 µM.

As to `COn1c(-c2cccc(C#N)c2)nc(C)c1C(=O)Nc1ccccc1` [LY-28c, 2-(3-cyanophenyl)-1-methoxy-4-methyl-N-phenyl-1H-imidazole-5-carboxamide], in assay [1], the IC50 was found to be 15.9 ± 1.2 µM. Take `CCOC(=O)c1[nH]c(-c2cccc(C#N)c2)nc1C` [LY-29, ethyl 2-(3-cyanophenyl)-4-methyl-1H-imidazole-5-carboxylate]: the inhibition at 30 µM in assay [1] (30 μM, read-out: Inhibition rate of target compounds on platelet aggregation at 30 μM) was 32.5%. For `CCOC(=O)c1c(C)nc(-c2cccc(C#N)c2)n1C` [LY-30a, ethyl 2-(3-cyanophenyl)-1,4-dimethyl-1H-imidazole-5-carboxylate], the 50% inhibitory concentration (IC50) in assay [1] was determined as 22.1 ± 0.703 µM. With `CCCSc1nc(N[C@@H]2C[C@H]2c2ccc(F)c(F)c2)c2nnn([C@@H]3C[C@H](OCCO)[C@@H](O)[C@H]3O)c2n1` [Ticagrelor, reference compound], the IC50 in assay [1] was 7.21 ± 0.251 µM. Also, in assay [2] (10 mg/kg intragastric), the “Wet weight of thrombus” value was 5.01 ± 0.16 mg.

The values are drawn from patent US20220064127A1, “PLATELET AGGREGATION INHIBITOR, PREPARATION AND USES THEREOF” (SHENYANG HINEWY PHARMACEUTICAL TECHNOLOGY CO., LTD., priority 2020, published 2022).
